From patent publication US20150272928A1, “INDOLE DERIVATIVES” (UNIVERSITY OF CENTRAL LANCASHIRE, priority 2012, published 2015)
Entries after “also recorded” stand apart in the source; their conditions may differ.

Legend:
1321N1 cells [1] = test: MTS assay, 1321N1 glioma cell line; type: cell-based; conditions: 48 h; for activity against the 1321N1 cell line (in words): MTS assay
Method: (§1) 1321N1 cells were maintained in Dulbeccos's Modified Eagle's Medium (DMEM) supplemented with 10% (v/v) foetal bovine serum (FBS) and 2 mM L-glutamine, while the U87MG cell line was maintained in Essential Minimum Eagle Medium (EMEM) supplemented with 10% (v/v) FBS, 2 mM L-glutamine, 1 mM sodium pyruvate and 1% (v/v) non-essential amino acids (NEAA) (Lonza, UK) in a 37° C. humidified incubator supplied with 5% CO2. The 1321N1 and the U87MG cells were trypsinized and cultured overnight at a cell density of 3500 cells/200 μl and 4000 cells/200 μl respectively in 96-well microtitre plates (Sarstedt, UK). The following day when the cells looked 50-60% confluent, each concentration of the commercial drugs and novel compounds mentioned above were added in quadruplicates and left for incubation for 48 hours. After 48 hours, 20 μl of the pre-warmed MTS reagent (Promega, UK) was added to each of the wells and the 96-well plates were incubated at 37° C. humidified incubator supplied with 5% CO2 for 60 min. At the end of 60 min, the absorbance was recorded at 490 nm using a Tecan GENios Pro® microplate reader. The concentration of compound that inhibits 50% of cell growth (IC50) compared to untreated vehicle controls containing ≦0.5% absolute ethanol was calculated by nonlinear regression analysis. Absolute ethanol was used in the vehicle controls as indole 4 was dissolved in absolute ethanol.

U87MG cells [2] = test: MTS assay, U87MG glioma cell line; type: cell-based
Method: as §1

U87MG cells [3] = test: Reactive oxygen species detection assay (carboxy-H2DCFDA, flow cytometry), U87MG cells; type: cell-based; conditions: 500 μM, 1 h, positive control TBHP 100 μM
Excerpt: (§2) The inventors hypothesised that the active indoles were acting through a radical-based mechanism, which was most likely related to the generation of reactive oxygen species (ROS).^[6] As such, the inventors chose the Image-iT™ LIVE Green Reactive Oxygen Species Detection Kit from Invitrogen Ltd, UK, which is able to detect reactive oxygen species (ROS) in live cells, to assess selected indoles. Oxidatively stressed cells, when labeled with the carboxy-H2DCFDA dye provided, should generate fluorescence which is detectable using a confocal microscope and flow cytometry. Various assays were therefore performed in accordance with the following protocols.
(§3) 1321N1 cells were maintained in Dulbeccos's Modified Eagle's Medium (DMEM) supplemented with 10% (v/v) foetal bovine serum (FBS) and 2 mM L-glutamine, while the U87MG cell line was maintained in Essential Minimum Eagle Medium (EMEM) supplemented with 10% (v/v) FBS, 2 mM L-glutamine, 1 mM sodium pyruvate and 1% (v/v) non-essential amino acids (NEAA) (Lonza, UK) in a 37° C. humidified incubator supplied with 5% CO2. The 1321N1 and the U87MG cells were trypsinized and cultured overnight at a cell density of 10^4 cells/well/ml and were seeded in 6 well plates (BD Biosciences, UK) and were allowed to attach overnight. 2 ml of this cell suspension was added into each well resulting into a final concentration of 20,000 cells/well. On the day of experiment, cells were labelled with sufficient amount of 25 μM carboxy-H2DCFDA dye and were incubated for 30 min at 37° C., protected from light. Cells were then treated with 500 μM of indole 4 and positive control [tert-butyl hydroperoxide (TBHP)](100 μM) and negative control (indole 2) (500 μM) for 60 mins. Cells were gently washed with Hank[…]s balanced salt solution (HBSS) warm buffer three times and then trypsinized, centrifuged and resuspended in 300 μl PBS. Cells were filtered through cell strainer caps (35 μm mesh) to obtain a single cell suspension and analysed using a FACSAria flow cytometer (BD Biosciences). The untreated vehicle controls contained ≦0.5% absolute ethanol and DMSO as indole 4 was dissolved in absolute ethanol while TBHP and indole 2 were dissolved in DMSO.
(§4) In the event, to confirm and quantify the amount of fluorescence (due to ROS) produced, glioma cell lines 1321N1 and U87MG were seeded in separate 6 well plates and were left overnight to attach. On the day of the experiment the carboxy-H2DCFDA dye was added to the cells which were incubated for 30 min in the dark. Indoles 2, 3, 4 and 7 (500 μM) were then added, in separate experiments, and left for 1 h incubation. Cells were thoroughly washed at each step to prevent background staining and they were imaged immediately after incubation.

1321N1 cells [4] = test: Reactive oxygen species detection assay (carboxy-H2DCFDA, flow cytometry), 1321N1 cells; type: cell-based; conditions: for ROS induction / oxidative stress: shift of H2DCFDA fluorescence signal compared to control: 1321N1, 500 μM, 1 h, flow cytometry, positive control TBHP 100 μM
Excerpt: as §2, §3, §4

[5] = Stability under acidic conditions; type: physicochemical
1321N1 cells [6] = test: MTS assay, 1321N1 glioma cell line; type: cell-based; conditions: 1321N1, co-treatment with ascorbic acid
[7] = system: primary cell culture (IN859); test: IC50 against primary cell culture IN859 from a glioblastoma multiforme patient biopsy; type: cell-based; conditions: cells from a biopsy from a glioblastoma multiforme patient
Excerpt: Based on these preliminary results the inventors were keen to discover if the effects would also be observed against a primary cell culture (IN859) from cells obtained from a biopsy from a glioblastoma multiforme patient.

1321N1 cells [8] = test: Acridine orange assay of acidic vesicular organelle (AVO) formation, 1321N1 cells; type: cell-based; conditions: 1321N1, 500 μM, 1 h, flow cytometry
Method: (§5) 1321N1 cells were maintained in Dulbeccos's Modified Eagle's Medium (DMEM) supplemented with 10% (v/v) foetal bovine serum (FBS) and 2 mM L-glutamine, while the U87MG cell line was maintained in Essential Minimum Eagle Medium (EMEM) supplemented with 10% (v/v) FBS, 2 mM L-glutamine, 1 mM sodium pyruvate and 1% (v/v) non-essential amino acids (NEAA) (Lonza, UK) in a 37° C. humidified incubator supplied with 5% CO2. The 1321N1 and the U87MG cells were trypsinized and cultured overnight at a cell density of 10^4 cells/well/ml and were seeded in 6 well plates (BD Biosciences, UK) and were allowed to attach overnight. 2 ml of this cell suspension was added into each well resulting into a final concentration of 20,000 cells/well. After 24 h of incubation, cells were treated with 500 μM of indole 4 for 60 min. After 60 min incubation with the compound the cells were stained with 3 μM acridine orange and incubated for 15 min at 37° C., protected from light. […] Cells were filtered through cell strainer caps (35 μm mesh) to obtain a single cell suspension and analysed using a FACSAria flow cytometer (BD Biosciences). […]
(§6) The glioma cells were seeded in 6 well plates and were left overnight to attach. The cells were then treated with indole 4 for 1 h, stained with acridine orange for 15 min, and were analysed by flow cytometry.

U87MG cells [9] = test: Acridine orange assay of acidic vesicular organelle (AVO) formation, U87MG cells; type: cell-based; conditions: 500 μM, 1 h, flow cytometry
Method: as §5, §6

[10] = Homo sapiens, 1321-N1, average and standard deviation of four repeats, dash = IC50 value not reached
[11] = Homo sapiens, U-87 MG, 48 h, average and standard deviation of four repeats, dash = IC50 value not reached
[12] = average and standard deviation of four repeats, dash = IC50 value not reached
[13] = 48 h, average and standard deviation of four repeats, dash = IC50 value not reached

SMILES | IC50 (1321N1 cells [1]; [10]) | activity against the 1321N1 cell line (in words) (1321N1 cells [1]) | IC50 (U87MG cells [2]; [11]) | ROS induction / oxidative stress: shift of H2DCFDA fluorescence signal compared to control (U87MG cells [3]) | ROS induction / oxidative stress: shift of H2DCFDA fluorescence signal compared to control (1321N1 cells [4]) | other results
OCc1c[nH]c2ccccc12 [Compound 1, (1H-indol-3-yl)methanol] | 374 ± 2 µM | active | 585 ± 2 µM | – | – | –
c1ccc(-c2cc3ccccc3[nH]2)cc1 [Compound 2, 2-phenyl-1H-indole] | – | not able to inhibit the growth | > 400 µM | no shift was observed | no shift was observed | MTS assay IC50 values 1321N1 (1321N1 cells [1]; [12]): does not reach its IC50; MTS assay IC50 values U87MG (U87MG cells [2]; [13]): does not reach its IC50; inhibition at 400 µM (U87MG cells [2]; Homo sapiens, U-87 MG, U87MG, at 400 μM, 48 h, read-out: maximum growth inhibition): 7%
OCc1c(-c2ccccc2)[nH]c2ccccc12 [Compound 3, (2-phenyl-1H-indol-3-yl)methanol] | 111 ± 1 µM | active | 176 ± 1 µM | shift of the fluorescence signal; also recorded: to a greater level than the positive control | shift of the fluorescence signal; also recorded: to a greater level than the positive control | stability under acidic conditions [5]: slightly unstable
Oc1ccccc1-c1cc2ccccc2[nH]1 [Compound 4, 2-(1H-indol-2-yl)phenol] | 445 ± 4 µM | active | 379 ± 4 µM | shift of the fluorescence signal; also recorded: to a greater level than the positive control | shift of the fluorescence signal; also recorded: to a greater level than the positive control | cell viability in the presence of ascorbic acid (1321N1 cells [6]): cell viability was unaffected; IC50 [7]: 398 ± 3 µM; AVO formation (acridine orange red fluorescence) (1321N1 cells [8]): increased amount of red fluorescence; AVO formation (acridine orange red fluorescence) (U87MG cells [9]): increased amount of red fluorescence; level of fluorescence (ROS) on co-treatment with ascorbic acid (1321N1 cells [4]; 1321N1, indole 4 500 μM plus ascorbic acid 100 μM, data not shown): less than the vehicle control cells alone; cell viability in the presence of ascorbic acid (U87MG cells [2]; MTS assay, U87MG, co-treatment with ascorbic acid): cell viability was unaffected
O=Cc1c(-c2ccccc2)[nH]c2ccccc12 [Compound 6, 2-phenyl-1H-indole-3-carbaldehyde] | – | inactive | – | – | – | activity against the U87MG cell line (in words) (U87MG cells [2]; MTS assay, 48 h): inactive
COc1ccccc1-c1cc2ccccc2[nH]1 [Compound 7, 2-(2-methoxyphenyl)-1H-indole, reference compound] | – | inactive | – | no shift was observed | no shift was observed | activity against the U87MG cell line (in words) (U87MG cells [2]; MTS assay, 48 h): inactive
N.N.[Cl][Pt][Cl] [cisplatin] | – | active | – | – | – | IC50 (1321N1 cells [1]; [12]): 11 ± 2 µM; IC50 (U87MG cells [2]; [13]): 310 ± 4 µM
